Reference: patent publication US20040214305A1, “Method of improving biomass yield of lactic acid bacterial cultures” (DANMARKS TEKNISKE UNIVERSITET, priority 2000, published 2004)

What was measured:
[1] = test system: Lactococcus lactis subsp. cremoris PJ4662; test: Biomass yield (OD600) in aerobic batch culture in defined SA medium; format: cell-based; conditions: for Increase of yield of biomass relative to MSA / Increase of yield of biomass relative to GSA: PJ4662, aerobic; for Increase of yield of biomass relative to MSA / Biomass: SA medium with 0.1% maltose; for Increase of yield of biomass relative to GSA: SA medium with growth limiting glucose; for Biomass: PJ4662, batch, maltose alone = 100
Experimental: Wild type L. lactis subsp. cremoris PJ4662, a derivative of the strain MG1363 containing the pAK80 plasmid (Israelsen et al., 1995) was grown aerobically in defined SA medium (Jensen and Hammer, 1993) supplemented with a growth limiting concentration of glucose (GSA), and in GSA medium further supplemented with haemin (GSA+H), heamin+lipoic acid (GSA+H+L) and: lipoic acid alone (GSA+L). The biomass yield was estimated by measuring the optical density at 600 nm (OD600). The yield of biomass increased by about 12% relative to the yield obtained with GSA when the medium was supplemented with haemin, by about 25% using the haemin+lipoic acid supplement and by about 7% using lipoic acid alone.
L. lactis subsp. cremoris PJ4662 was grown aerobically in defined SA medium (Jensen and Hammer, 1993) supplemented with a growth-limiting concentration of 0.1% maltose (MSA), and in MSA medium further supplemented with haemin (MSA+H), haemin+lipoic acid (MSA+H+L) and lipoic acid alone (MSA+L). The biomass yield was estimated by measuring the optical density at 600 nm (OD600), see Table 1.2 below.
It was also tested whether the extent of aeration affected the biomass yield and the amount of ATP produced by oxidative phosphorylation by performing an experiment (Table 1.3) using more vigorous aeration as compared to the experiment illustrated in Table 1.2.
Wild type L. lactis subsp. cremoris PJ4662, a derivative of the strain MG1363 containing the pAK80 plasmid (Israelsen et al., 1995) was grown aerobically in defined SA medium (Jensen and Hammer, 1993) supplemented with a growth limiting concentration of galactose and lipoic acid (GaSAL), and in GaSAL medium further supplemented with haemin+lipoic acid (GaSALH). The biomass yield was estimated by measuring the optical density at 600 nm (OD600). The yield of biomass increased by 30% relative to the yield obtained with GaSAL when the medium was supplemented with haemin (GaSALH). A chemostat experiment was also performed with cells grown on galactose. Here the biomass increased by 75% compared to the biomass obtained in GaSAL medium.

[2] = test system: Lactococcus lactis subsp lactis FHCY-1; test: Growth in M17 batch cultures supplemented with different sugars; format: cell-based; conditions: FHCY-1, M17 medium
Experimental: Therefore, the growth of the starter culture strain, FHCY-1, was tested on various sugars.

[3] = test system: phospho-β-D-galactosidase in FHCY-1 cells; test: Phospho-beta-galactosidase activity (ONPG-P substrate) as lac operon expression; format: cell-based, Lactococcus lactis subsp. lactis; conditions: for Specific activity of phospho-β-D-galactosidase: FHCY-1 cells grown in M17 on the carbon/energy source, average of two determinations
Experimental: The expression of the lac operon in the cells grown on the various sugars was also tested by measuring the activity of the enzyme phospho-beta-galactosidase. Samples were taken from the cultures in FIG. 2 and processed as described previously (Jensen and Hammer, 1998). Subsequently, the activity of phospho-beta-galactosidase was determined as the standard determination of beta-galactosidase, except that o-nitrophenyl-beta-D-galactopyranoside 6-phosphate (ONPG-P) was used as the chromogenic substrate instead of o-nitrophenyl-beta-D-galactopyranoside (ONPG).

[4] = test system: commercial mixed strain starter culture of Lactococcus lactis; test: Biomass production in pH controlled aerobic batch in complex media with haemin; format: cell-based; conditions: for Yield (OD600nm): haemin, aerobic pH controlled batch
Experimental: A commercial mixed strain starter culture of Lactococcus lactis was applied in this Example. The cultivations were performed on complex media containing hydrolysed skimmed milk powder, yeast extract, essential vitamins and minerals and either lactose or maltose as carbon source. Furthermore, the media were supplemented with haemin. Medium 1 and Medium 2 were optimised with respect to the cellular yield on respectively lactose and maltose as carbon source. All media were adjusted to an initial pH of 6.5.
The cultivations were inoculated with concentrated cell suspensions of the L. lactis culture. Air was sparged through the cultivation broths at a rate sufficient to maintain the dissolved oxygen concentration above 50% of saturation level. The cultivations were conducted at a temperature of 30° C. The cultures were allowed to acidify to pH 6.2, and subsequently maintained at pH 6.2 by controlled addition of 13.4 N NH4OH. Samples were collected throughout the cultivations for measurements of the optical density using a Hitachi U-1100 Spectrophotometer at […].

atp mutant strain PJ4699 = test: Biomass yield (OD600) of atp mutant strain with lower H+-ATPase expression; format: cell-based, Lactococcus lactis; conditions: PJ4699, no nisin
Text: In order to investigate whether or not the surplus of ATP that was found in the cultures cultivated in maltose medium (with haemin and lipoic acid) is due to oxidative phosphorylation it was decided to compare the biomass yield of a wild type strain and a strain which, relative to the wild type strain, has a lower expression of the H^+-ATPase complex. For that purpose a mutant strain of the MG1363 strain, PJ4699, was used. In this mutant strain the native promoter of the chromosomal atp operon has been replaced with the nisA promoter (de Ruyter et al., 1996).
This mutant therefore permitted an experiment to be performed where the biomass yield of the wild type strain and the H^+-ATPase mutant which had lower expression of the H^+-ATPase was compared. If ATP is synthesised by the H^+-ATPase complex, then the biomass yield on maltose should be lower in the mutant cells having lower activity of this enzyme, under conditions where oxidative phosphorylation is observed.

[5] = test system: Lactococcus lactis subsp. cremoris; test: Intracellular [ATP]/[ADP] ratio in exponentially growing aerobic cultures; format: cell-based; conditions: MSA+L+H versus MSA+L
Experimental: The intracellular concentrations of ATP and ADP was measured to test whether the addition of a porphyrin to a culture growing on a poor carbon/energy source would increase the [ATP]/[ADP] ratio as might be expected if the ATP synthase starts to produce ATP. Samples were taken from exponentially growing cultures of Lactococcus lactis subsp. cremoris at cell densities between 0.2 and 0.8 (OD600). The total intracellular metabolite content were extracted as described previously (Andersen et al., 2001) and the concentrations of ATP and ADP were determined as described in Jensen et al. (1 993).

[6] = Medium 1 (optimised for growth on lactose)

Compound | Increase of yield of biomass relative to MSA [1] [%] | Increase of yield of biomass relative to GSA [1] | Specific activity of phospho-β-D-galactosidase [3] | Yield (OD600nm) [4, 6] [OD600nm] | other results
O=C(O)CCCC[C@@H]1CCSS1 (racemic) [lipoic acid] | 48 | about 7% |  |  | 
O=C[C@H](O)[C@@H](O)[C@@H](O)[C@H](O)CO [Galactose, galactose] |  |  | 172.2 |  | Reduction of growth compared to lactose [2]: approximately 20%; Increase of phospho-β-D-galactosidase activity compared to lactose ([3]; FHCY-1 cells): 20%
OC[C@H]1O[C@@H](O[C@H]2[C@H](O)[C@@H](O)C(O)O[C@@H]2CO)[C@H](O)[C@@H](O)[C@H]1O (stereo partly drawn) [Lactose, lactose] |  |  | 149.5 | 48 | 
OC[C@H]1O[C@H](O[C@H]2[C@H](O)[C@@H](O)[C@H](O)O[C@@H]2CO)[C@H](O)[C@@H](O)[C@@H]1O [maltose] |  |  | 37.5 | 60 | Yield (OD600nm) ([4]; Medium 2 (optimised for growth on maltose)): 96 OD600nm; Increase of final yield of biomass compared to the lactose culture ([4]; medium 1, haemin, aerobic): 25%; Yield of biomass compared to optimised lactose medium ([4]; medium 2, haemin, aerobic): two-fold higher; Biomass ([1]; moderate aeration): 100%; Biomass ([1]; vigorous aeration): 100%
haemin | 33 | about 12% |  |  | Growth of the nisin-dependent atp mutant without nisin (atp mutant strain PJ4699): capable of growth without nisin; Growth rate increase of haemin culture versus culture without haemin [5]: 30%
